Measured values as given in patent publication US20240216315A1, “METHODS AND COMPOSITIONS FOR TREATMENT OF DIABETIC RETINOPATHY AND RELATED CONDITIONS” (Ocuphire Pharma, Inc., priority 2021, published 2024).

Assays:
[1] = Phase 2 clinical study, safety: treatment-emergent adverse events; type: in vivo, human
Source text: (§1) The study is to be configured as a placebo-controlled, double-masked, randomized, Phase 2 study in approximately 100 subjects with moderately severe to severe NPDR (diabetic retinopathy severity score [DRSS] Level 47 or 53, see FIG. 1) or mild PDR (DRSS Level 61), evaluating safety and efficacy following administration of Compound 1 twice daily for 24 weeks. The study will have a 1:1 randomization (placebo: Compound 1). Randomization will be stratified by level of disease severity (NPDR or PDR). Subjects with mild PDR will be capped at 20% for each arm. Efficacy evaluations at 12 and/or 24 weeks will include DRSS, center-involved diabetic macular edema (DME), moderate PDR or PDR-related adverse events (AEs), best-corrected visual acuity (BCVA), and central subfield thickness (CST). Further experimental procedures and results are described below.
(§2) At the Qualification/Baseline (Visit 2, Day 1): • The subject will be randomized into the study. • Study medication will be dispensed in accordance with the subjects randomized treatment arm. • Blood samples will be drawn pre-dose for baseline levels and on Visit 9 (Week 24) for exploratory biomarker processing (i.e., cytokine and Ref-1 levels) to evaluate pharmacodynamic properties. • Subjects will be instructed to administer their study medication (APX3330 or placebo) cach day, with 3 tablets every morning and 2 tablets every evening. Study medication should be taken at approximately the same time each day and may be taken with or without food.
Telephone safety calls will be conducted for Visit 3 (Week 1±2 Days), Visit 5 (Week 8±2 Days), Visit 7 (Week 16±2 Days), and Visit 8 (Week 20±2 Days). The safety assessment will include review of drug compliance, concomitant medications, AEs, and urine pregnancy test at home (only for women of childbearing potential).
Study subjects will receive study medication as set forth in Table 1 according to the Treatment Group to which the subject is assigned. […]

[2] = Phase 2 clinical study, safety: blood chemistry (alanine and aspartate aminotransferase in subjects' blood); type: in vivo, human; conditions: combined placebo and Compound 1 patients
Source text: as §1, §2
At the Second Treatment Visit (Visit 6, Week 12±2 Days), subjects will return to the site for the following series of safety and efficacy assessments: drug accountability, concomitant medications, urine pregnancy test (only for women of childbearing potential), HR/BP/vital signs, BCVA (ETDRS), DRSS, CST (SD-OCT), blood draw for PK, blood chemistry, blood hematology, biomicroscopy, ophthalmoscopy, IOP, eGFR, and AEs. Following the completion of the assessments, used medication kits will be collected for accountability (by counting the number of unused tablets), and new study medication kits will be dispensed.
At the Third Treatment Visit (Visit 9, Week 24±2 Days), subjects will return to the site for the following series of safety and efficacy assessments: drug accountability, concomitant medications, urine pregnancy test (only for women of childbearing potential), physical examination, HR/BP/vital signs, BCVA (ETDRS), DRSS, CST (SD-OCT), blood chemistry, blood hematology, biomicroscopy, ophthalmoscopy, IOP, cGFR, AEs, and blood draw for exploratory biomarkers (ELISA, cytokine panel, comprehensive metabolic panel). Visit 9 (Week 24) is the end of the treatment period. Study medication will be returned for accountability (by counting the number of unused tablets), and no further study medication will be dispensed.
Study subjects will receive study medication as set forth in Table 1 according to the Treatment Group to which the subject is assigned. Subjects will be instructed to take study medication at approximately the same time each day, and the medication may be taken with or without food. […]

CCCCCCCCC/C(=C\C1=C(C)C(=O)C(OC)=C(OC)C1=O)C(=O)O [Compound 1, (E)-2-((4,5-dimethoxy-2-methyl-3,6-dioxocyclohexa-1,4-dien-1-yl)methylene)undecanoic acid]
safety profile in the patient population enrolled ([1]; Compound 1 administered orally according to the study protocol (600 mg/day)): good safety profile
total of treatment-emergent adverse events observed ([1]; from the 100 subjects enrolled, combined placebo and Compound 1 patients): 83
subjects that reported at least one treatment-emergent adverse event ([1]; of 100 subjects enrolled, combined placebo and Compound 1 patients): 41
change in mean concentration of alanine aminotransferase in subjects' blood relative to Baseline ([2]; week 12, 50 subjects): −0.8 IU/L
change in mean concentration of aspartate aminotransferase in subjects' blood relative to Baseline ([2]; week 12, 50 subjects): −0.5 IU/L
reduction in mean concentration of alanine aminotransferase in subjects' blood relative to Baseline ([2]; week 12, 50 subjects): 3.6%
reduction in mean concentration of aspartate aminotransferase in subjects' blood relative to Baseline ([2]; week 12, 50 subjects): 3%
change in mean concentration of alanine aminotransferase in subjects' blood relative to Baseline ([2]; week 24, 22 subjects): −2.1 IU/L
change in mean concentration of aspartate aminotransferase in subjects' blood relative to Baseline ([2]; week 24, 22 subjects): −1.8 IU/L
reduction in mean concentration of alanine aminotransferase in subjects' blood relative to Baseline ([2]; week 24, 22 subjects): 9.4%
reduction in mean concentration of aspartate aminotransferase in subjects' blood relative to Baseline ([2]; week 24, 22 subjects): 9%
